# According to ChEMBL document CHEMBL1201862, “PubChem BioAssay data set” (2004):
#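 Compound exposure: 48 hours, 5 concentrations, 96-well plates. At the GI50, growth is halved.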 Active and inactive are the calls of the source. No stated cut-off is given here; in the data, active = GI50 up to about 1.1 µM and inactive = higher.
# Experiments:
# Assay in all cases: DTP human tumour cell line panel, 48 h
# A549 = tested on: A549
# BT-549 = tested on: BT-549
# HL-60 = tested on: HL-60
# HOP-62 = tested on: HOP-62
# Hs-578T = tested on: Hs-578T
# LOX IMVI = tested on: LOX IMVI
# MDA-MB-231 = tested on: MDA-MB-231
# MDA-MB-435 = tested on: MDA-MB-435
# MOLT-4 = tested on: MOLT-4
# NCI-H226 = tested on: NCI-H226
# NCI-H460 = tested on: NCI-H460
# NCI-H522 = tested on: NCI-H522
# PC-3 = tested on: PC-3
# RXF 393 = tested on: RXF 393
# SF-268 = tested on: SF-268
# SK-MEL-5 = tested on: SK-MEL-5
# SK-OV-3 = tested on: SK-OV-3
# SNB-75 = tested on: SNB-75
# SR = tested on: SR
# U-251 = tested on: U-251
SMILES,GI50 (A549),GI50 (BT-549),GI50 (HL-60),GI50 (HOP-62),GI50 (Hs-578T),GI50 (LOX IMVI),GI50 (MDA-MB-231),GI50 (MDA-MB-435),GI50 (MOLT-4),GI50 (NCI-H226),GI50 (NCI-H460),GI50 (NCI-H522),GI50 (PC-3),GI50 (RXF 393),GI50 (SF-268),GI50 (SK-MEL-5),GI50 (SK-OV-3),GI50 (SNB-75),GI50 (SR),GI50 (U-251)
CN(C)Cc1cc(C(F)(F)F)ccc1C(O)(c1ccccc1)c1ccccc1,15 µM (inactive),> 10 µM (inactive),7.76 µM (inactive),16.3 µM (inactive),26.9 µM (inactive),15.8 µM (inactive),11.9 µM (inactive),18.8 µM (inactive),15.7 µM (inactive),15.1 µM (inactive),14.6 µM (inactive),15.6 µM (inactive),14.1 µM (inactive),11.8 µM (inactive),15.3 µM (inactive),14.1 µM (inactive),17.4 µM (inactive),8.55 µM (inactive),12.6 µM (inactive),11.8 µM (inactive)
CCON=C1C(C)(C)C(C)(C)C(C)(C)C1(C)C,> 100 µM (inactive),> 100 µM (inactive),> 100 µM (inactive),> 100 µM (inactive),> 100 µM (inactive),> 100 µM (inactive),> 100 µM (inactive),> 100 µM (inactive),> 100 µM (inactive),> 100 µM (inactive),> 100 µM (inactive),> 100 µM (inactive),> 100 µM (inactive),> 100 µM (inactive),> 100 µM (inactive),> 100 µM (inactive),> 100 µM (inactive),> 100 µM (inactive),> 100 µM (inactive),> 100 µM (inactive)
COc1ccc2oc(C(=O)N3CC(CCl)c4ccc(N)cc43)cc2c1 (stereo not given),0.303 µM (active),0.299 µM (active),0.415 µM (active),0.995 µM (active),0.857 µM (active),0.356 µM (active),0.826 µM (active),0.332 µM (active),0.255 µM (active),1.16 µM (inactive),0.203 µM (active),0.0189 µM (active),0.296 µM (active),0.249 µM (active),0.354 µM (active),0.176 µM (active),1.35 µM (inactive),0.308 µM (active),0.16 µM (active),0.333 µM (active)
CN1CN(c2ccccc2)C2(CCN(CCCSc3ccccc3NC(=O)/C=C/c3ccccc3)CC2)C1=O,6.93 µM (inactive),2.54 µM (inactive),3.95 µM (inactive),2.83 µM (inactive),3.41 µM (inactive),2.25 µM (inactive),1.73 µM (inactive),2.61 µM (inactive),2 µM (inactive),2.24 µM (inactive),4.05 µM (inactive),17.3 µM (inactive),5.45 µM (inactive),7.55 µM (inactive),4.21 µM (inactive),3.55 µM (inactive),5.92 µM (inactive),5.52 µM (inactive),2.1 µM (inactive),7.5 µM (inactive)
CNC(=O)C(C)NC(=O)C(Cc1ccccc1)NC(=O)c1ccccc1 (stereo not given),> 100 µM (inactive),> 100 µM (inactive),> 100 µM (inactive),> 100 µM (inactive),> 100 µM (inactive),> 100 µM (inactive),> 100 µM (inactive),> 100 µM (inactive),> 100 µM (inactive),> 100 µM (inactive),> 100 µM (inactive),> 100 µM (inactive),> 100 µM (inactive),> 100 µM (inactive),> 100 µM (inactive),> 100 µM (inactive),> 100 µM (inactive),> 100 µM (inactive),> 100 µM (inactive),> 100 µM (inactive)
CC(=O)N(C(C)=O)n1c(Cc2ccc(Cl)cc2)nn(C(C)=O)c1=O,> 100 µM (inactive),> 100 µM (inactive),> 100 µM (inactive),> 100 µM (inactive),> 100 µM (inactive),> 100 µM (inactive),> 100 µM (inactive),> 100 µM (inactive),> 100 µM (inactive),> 100 µM (inactive),> 100 µM (inactive),> 100 µM (inactive),> 100 µM (inactive),> 100 µM (inactive),> 100 µM (inactive),> 100 µM (inactive),> 100 µM (inactive),> 100 µM (inactive),> 100 µM (inactive),> 100 µM (inactive)
CC1(C2(C)OC(=O)c3ccccc32)OC(=O)c2ccccc21 (stereo not given),> 100 µM (inactive),> 100 µM (inactive),> 100 µM (inactive),> 100 µM (inactive),72.6 µM (inactive),> 100 µM (inactive),> 100 µM (inactive),> 100 µM (inactive),83.8 µM (inactive),> 100 µM (inactive),> 100 µM (inactive),35.9 µM (inactive),> 100 µM (inactive),> 100 µM (inactive),> 100 µM (inactive),> 100 µM (inactive),> 100 µM (inactive),> 100 µM (inactive),> 100 µM (inactive),> 100 µM (inactive)
Cn1cnc([N+](=O)[O-])c1[Se]c1nc(N)nc2c1ncn2C1OC(CO)C(O)C1O (stereo not given),> 100 µM (inactive),> 100 µM (inactive),> 100 µM (inactive),> 100 µM (inactive),> 100 µM (inactive),> 100 µM (inactive),> 100 µM (inactive),> 100 µM (inactive),> 100 µM (inactive),> 100 µM (inactive),> 100 µM (inactive),> 100 µM (inactive),> 100 µM (inactive),> 100 µM (inactive),> 100 µM (inactive),> 100 µM (inactive),> 100 µM (inactive),> 100 µM (inactive),> 100 µM (inactive),> 100 µM (inactive)
CCCCCCCCC/C=C1\CCC(CN2CCOCC2)C1=O (stereo not given),15 µM (inactive),2.08 µM (inactive),1.67 µM (inactive),13.6 µM (inactive),1.94 µM (inactive),0.855 µM (active),2.96 µM (inactive),2.36 µM (inactive),1.57 µM (inactive),5.61 µM (inactive),7.26 µM (inactive),2.64 µM (inactive),1.79 µM (inactive),2.31 µM (inactive),3.94 µM (inactive),6.65 µM (inactive),17.3 µM (inactive),6.17 µM (inactive),2.38 µM (inactive),2.02 µM (inactive)
C=CCN1C(=O)CNC1=S,> 100 µM (inactive),> 100 µM (inactive),23.7 µM (inactive),> 100 µM (inactive),> 100 µM (inactive),> 100 µM (inactive),> 100 µM (inactive),> 100 µM (inactive),> 100 µM (inactive),> 100 µM (inactive),> 100 µM (inactive),> 100 µM (inactive),> 100 µM (inactive),> 100 µM (inactive),> 100 µM (inactive),> 100 µM (inactive),> 100 µM (inactive),> 100 µM (inactive),> 100 µM (inactive),> 100 µM (inactive)
Cc1cc2c(c(/C=N/c3ccc(N(C)C)cc3)c1)OC1(C=C2)Oc2ccccc2C(=O)N1C (stereo not given),20.1 µM (inactive),8.63 µM (inactive),3.54 µM (inactive),> 43 µM (inactive),21.5 µM (inactive),13 µM (inactive),3.53 µM (inactive),13 µM (inactive),1.75 µM (inactive),23.9 µM (inactive),18.7 µM (inactive),14.4 µM (inactive),> 35.5 µM (inactive),11.7 µM (inactive),17.1 µM (inactive),13.9 µM (inactive),24.4 µM (inactive),18 µM (inactive),54.2 µM (inactive),15.1 µM (inactive)
O=C1CCc2c(sc3ncnc(Nc4cccc(Br)c4)c23)C1,3.11 µM (inactive),3.77 µM (inactive),4.32 µM (inactive),5.53 µM (inactive),4.15 µM (inactive),3.49 µM (inactive),3.27 µM (inactive),1.94 µM (inactive),3.2 µM (inactive),4.06 µM (inactive),3.99 µM (inactive),2.1 µM (inactive),3.07 µM (inactive),2.73 µM (inactive),3.92 µM (inactive),1.88 µM (inactive),7.52 µM (inactive),3.7 µM (inactive),2.33 µM (inactive),2.81 µM (inactive)
NCC1OC(OC2C(N)CC(N)C(O)C2OC2OC(CO)C(O)C2O)C(N)C(O)C1O (stereo not given),> 100 µM (inactive),> 100 µM (inactive),> 100 µM (inactive),> 50 µM (inactive),> 100 µM (inactive),> 50 µM (inactive),> 50 µM (inactive),> 100 µM (inactive),> 50 µM (inactive),> 100 µM (inactive),> 50 µM (inactive),> 100 µM (inactive),> 50 µM (inactive),> 50 µM (inactive),> 100 µM (inactive),> 50 µM (inactive),> 50 µM (inactive),27.8 µM (inactive),> 50 µM (inactive),> 100 µM (inactive)
N/C(=N\N/C=C1\C=Nc2cc(C(F)(F)F)ccc2C1=O)NO,> 10 µM (inactive),> 10 µM (inactive),> 10 µM (inactive),> 10 µM (inactive),> 10 µM (inactive),> 10 µM (inactive),> 10 µM (inactive),> 10 µM (inactive),> 10 µM (inactive),> 10 µM (inactive),> 10 µM (inactive),> 10 µM (inactive),> 10 µM (inactive),> 10 µM (inactive),> 10 µM (inactive),> 10 µM (inactive),> 10 µM (inactive),0.148 µM (active),> 10 µM (inactive),> 10 µM (inactive)
